Where “and” joins values, the source holds several entries; their conditions need not be identical. Equal entries are not always repeated. Where two headings read alike, the source gives them in different places.
Tests used:
[1] = test system: BCRP; set-up: method as in unpublished data; details: preclinical studies; ref unpublished data; cited from earlier work
[2] = test system: plasma protein; set-up: method as in unpublished data; details: preclinical studies; ref unpublished data; cited from earlier work
[3] = test system: cytochrome P450 (CYP); set-up: method as in unpublished data; details: preclinical studies; ref unpublished data; cited from earlier work
[4] = test system: OATP1B1; set-up: method as in unpublished data; details: preclinical studies; ref unpublished data; cited from earlier work
[5] = test system: OAT3; set-up: method as in unpublished data; details: preclinical studies; ref unpublished data; cited from earlier work
[6] = test system: MDR1; set-up: method as in unpublished data; details: preclinical studies; ref unpublished data; cited from earlier work
[7] = set-up: method as in unpublished data; details: preclinical studies; ref unpublished data; cited from earlier work
[8] = test system: OAT1; set-up: method as in unpublished data; details: preclinical studies; ref unpublished data; cited from earlier work
[9] = set-up: method as in Phase I study; details: ref Phase I study, cited from earlier work
[10] = test system: CYP3A4; details: preclinical in vitro studies; cited from earlier work
[11] = test system: influenza virus; set-up: method as in preclinical studies; details: ref preclinical studies; cited from earlier work
[12] = for GP1707D07 concentration: Period 1 GP681 monotherapy, individual subjects; for GP1707D07 concentration, Geo Mean / GP1707D07 concentration, Mean: plasma; for GP1707D07 concentration, Geo Mean: Geo Mean of subjects 301-312, Period 2 GP681-itraconazole co-administration; for GP1707D07 concentration, Mean: Mean of subjects 301-312, Period 2 GP681-itraconazole co-administration
[13] = set-up: method as in unpublished data; details: after oral GP681; ref unpublished data; cited from earlier work
[14] = test system: OATP1B3; set-up: method as in unpublished data; details: preclinical studies; ref unpublished data; cited from earlier work
[15] = test system: liver enzymes; set-up: method as in unpublished data; details: preclinical studies; ref unpublished data; cited from earlier work

In the case of O=C1c2c(O)c(=O)ccn2N([C@@H]2c3ccccc3SCc3c2ccc(F)c3F)[C@@H]2COC3(CC3)CN12 [GP1707D07], the “substrate for the BCRP transporter” value [1] is given as “Neither Suraxavir Marboxil (GP681) nor its metabolite, GP1707D07, serves as substrates”, the “plasma protein binding rate” value [2] is given as “high plasma protein binding rate” and the metabolizing enzymes [3] is given as “mainly metabolized by cytochrome P450 (CYP) 1A2, CYP 2C8, and CYP 3A4”. For the same compound, the “inhibition of transport activity of OATP1B1” value [4] was “nor do they inhibit the transport activity”, the “inhibition of transport activity of OAT3” value [5] was “nor do they inhibit the transport activity” and the “inhibition of transport activity of MDR1” value [6] was “nor do they inhibit the transport activity”. The route of excretion [7] was “mainly excreted in feces”, the tissue distribution [7] was “widely distributed across various tissues” and the “inhibition of transport activity of OAT1” value [8] was “nor do they inhibit the transport activity”. The C24 ([9]; all tested dose cohorts (20 mg–80 mg)) was greater than 6.87 ng/mL, the “time maintained above the target concentration (6.87 ng/mL)” value ([9]; dose cohorts 20 mg–80 mg) was 72 to 136 h and the “substrate of CYP3A4” value [10] was “is a substrate of CYP3A4”. For the same compound, the “estimated clinically effective concentration (antiviral threshold)” value [11] was 6.87 ng/mL, the “time from which GP1707D07 concentrations exceed the clinical effective concentration” value ([12]; GP681 20 mg + itraconazole, post-dose, threshold 6.87 ng/mL) was 1 h and the GP1707D07 concentration ([12]; 0.5h) was 17.9 ng/mL and 0.6 ng/mL and 10.8 ng/mL and 2.8 ng/mL and 8.3 ng/mL and 1.4 ng/mL. The GP1707D07 concentration ([12]; 1h) was 23.5 ng/mL and 1.8 ng/mL and 16.5 ng/mL and 6.2 ng/mL and 10.1 ng/mL and 5.6 ng/mL, the GP1707D07 concentration ([12]; 2h) was 33.1 ng/mL and 4.5 ng/mL and 26.9 ng/mL and 7.2 ng/mL and 12.6 ng/mL and 9.4 ng/mL and the GP1707D07 concentration ([12]; 3h) was 44.4 ng/mL and 11.9 ng/mL and 25.1 ng/mL and 6.4 ng/mL and 14.2 ng/mL and 10.4 ng/mL. The GP1707D07 concentration ([12]; 4h) was 36.1 ng/mL and 13.4 ng/mL and 24.0 ng/mL and 5.7 ng/mL and 15.4 ng/mL and 11.0 ng/mL, the GP1707D07 concentration ([12]; 5h) was 30.8 ng/mL and 14.9 ng/mL and 20.4 ng/mL and 7.0 ng/mL and 15.5 ng/mL and 12.0 ng/mL and the GP1707D07 concentration ([12]; 6h) was 30.7 ng/mL and 18.0 ng/mL and 19.4 ng/mL and 7.0 ng/mL and 15.2 ng/mL and 11.0 ng/mL. For the same compound, the GP1707D07 concentration ([12]; 8h) was 24.5 ng/mL and 14.2 ng/mL and 17.9 ng/mL and 6.9 ng/mL and 13.5 ng/mL and 9.5 ng/mL, the GP1707D07 concentration ([12]; 12h) was 21.5 ng/mL and 12.6 ng/mL and 14.5 ng/mL and 6.6 ng/mL and 11.1 ng/mL and 8.8 ng/mL and 20.0 ng/mL and the GP1707D07 concentration ([12]; 24h) was 17.5 ng/mL and 10.3 ng/mL and 12.6 ng/mL and 5.4 ng/mL and 10.1 ng/mL and 6.3 ng/mL and 14.7 ng/mL. The GP1707D07 concentration ([12]; 36h) was 14.8 ng/mL and 8.1 ng/mL and 10.5 ng/mL and 4.4 ng/mL and 8.8 ng/mL and 5.4 ng/mL and 11.8 ng/mL, the GP1707D07 concentration ([12]; 48h) was 12.3 ng/mL and 6.9 ng/mL and 7.4 ng/mL and 3.9 ng/mL and 6.7 ng/mL and 5.1 ng/mL and 9.0 ng/mL and the GP1707D07 concentration ([12]; 72h) was 7.8 ng/mL and 5.1 ng/mL and 4.9 ng/mL and 3.2 ng/mL and 6.0 ng/mL and 3.6 ng/mL and 7.6 ng/mL. For the same compound, the GP1707D07 concentration ([12]; 120h) was 4.8 ng/mL and 3.5 ng/mL and 3.2 ng/mL and 1.7 ng/mL and 4.0 ng/mL and 2.1 ng/mL and 3.6 ng/mL, the GP1707D07 concentration ([12]; 168h) was 2.4 ng/mL and 2.0 ng/mL and 1.9 ng/mL and 1.1 ng/mL and 2.2 ng/mL and 1.3 ng/mL and the GP1707D07 concentration ([12]; 264h) was 1.3 ng/mL and 1.0 ng/mL and 0.8 ng/mL and 0.7 ng/mL. The “GP1707D07 concentration, Geo Mean” value ([12]; D26, 0.5h) was 4.4 ng/mL, the “GP1707D07 concentration, Geo Mean” value ([12]; D26, 1h) was 8.5 ng/mL and the “GP1707D07 concentration, Geo Mean” value ([12]; D26, 2h) was 15.2 ng/mL. The “GP1707D07 concentration, Geo Mean” value ([12]; D26, 3h) was 17.9 ng/mL, the “GP1707D07 concentration, Geo Mean” value ([12]; D26, 4h) was 19.7 ng/mL and the “GP1707D07 concentration, Geo Mean” value ([12]; D26, 5h) was 20.9 ng/mL. The “GP1707D07 concentration, Geo Mean” value ([12]; D26, 6h) was 20.4 ng/mL, the “GP1707D07 concentration, Geo Mean” value ([12]; D26, 8h) was 19.0 ng/mL and the “GP1707D07 concentration, Geo Mean” value ([12]; D26, 12h) was 16.7 ng/mL. For the same compound, the “GP1707D07 concentration, Geo Mean” value ([12]; D26, 24h) was 14.9 ng/mL, the “GP1707D07 concentration, Geo Mean” value ([12]; D26, 36h) was 13.5 ng/mL and the “GP1707D07 concentration, Geo Mean” value ([12]; D26, 48h) was 12.1 ng/mL. The “GP1707D07 concentration, Geo Mean” value ([12]; D26, 72h) was 9.6 ng/mL, the “GP1707D07 concentration, Geo Mean” value ([12]; D26, 120h) was 6.8 ng/mL and the “GP1707D07 concentration, Geo Mean” value ([12]; D26, 168h) was 5.1 ng/mL. The “GP1707D07 concentration, Geo Mean” value ([12]; D26, 264h) was 3.2 ng/mL, the “GP1707D07 concentration, Mean” value ([12]; D26, 0h) was 0.0 ng/mL and the “GP1707D07 concentration, Mean” value ([12]; D26, 0.5h) was 6.4 ng/mL. The “GP1707D07 concentration, Mean” value ([12]; D26, 1h) was 10.4 ng/mL, the “GP1707D07 concentration, Mean” value ([12]; D26, 2h) was 17.0 ng/mL and the “GP1707D07 concentration, Mean” value ([12]; D26, 3h) was 19.7 ng/mL. The “GP1707D07 concentration, Mean” value ([12]; D26, 4h) was 21.3 ng/mL, the “GP1707D07 concentration, Mean” value ([12]; D26, 5h) was 22.0 ng/mL and the “GP1707D07 concentration, Mean” value ([12]; D26, 6h) was 21.6 ng/mL. For the same compound, the “GP1707D07 concentration, Mean” value ([12]; D26, 8h) was 20.0 ng/mL, the “GP1707D07 concentration, Mean” value ([12]; D26, 12h) was 17.6 ng/mL and the “GP1707D07 concentration, Mean” value ([12]; D26, 24h) was 15.6 ng/mL. For the same compound, the “GP1707D07 concentration, Mean” value ([12]; D26, 36h) was 14.2 ng/mL, the “GP1707D07 concentration, Mean” value ([12]; D26, 48h) was 12.5 ng/mL and the “GP1707D07 concentration, Mean” value ([12]; D26, 72h) was 10.1 ng/mL. For the same compound, the “GP1707D07 concentration, Mean” value ([12]; D26, 120h) was 7.1 ng/mL, the “GP1707D07 concentration, Mean” value ([12]; D26, 168h) was 5.4 ng/mL and the “GP1707D07 concentration, Mean” value ([12]; D26, 264h) was 3.3 ng/mL. For the same compound, the “average ratio of GP1707D07 concentration at each time point (Period 2: Period 1)” value ([12]; within 24 h post-dose) was 1.7–2.0, the “share of the total radioactivity in serum” value [13] was “approximately 95.4%” and the “inhibition of transport activity of OATP1B3” value [14] was “nor do they inhibit the transport activity”. The “inhibition or induction of liver enzymes” value [15] was “do not significantly inhibit or induce liver enzymes”.
